Results from patent publication US20140011814A1, “DIAMINE AND MEGLUMINE SALT FORMS OF FATTY ACIDS” (THETIS PHARMACEUTICALS LLC, priority 2012, published 2014).

Experiment: Rat oral pharmacokinetics (plasma analyzed for eicosapentaenoic acid)
Details: analyte EPA in plasma, oral gavage 40 mg/kg as aqueous solution in 0.5% carboxymethyl cellulose, Sprague-Dawley rats, mean of 6 rats; for AUC (0-24): 0-24 h

| SMILES | AUC (0-24) [µg·h/mL] | Cmax [ng/mL] | Tmax [h] |
| --- | --- | --- | --- |
| C1CNCCN1.CC/C=C\C/C=C\C/C=C\C/C=C\C/C=C\CCCC(=O)O.CC/C=C\C/C=C\C/C=C\C/C=C\C/C=C\CCCC(=O)O [Piperazine di-eicosapentaenoate, Bis[5Z,8Z,11Z,14Z,17Z)-icosa-5,8,11,14,17-pentaenoate]piperazine salt] | 134.85 | 28220 | 1.0 |
| CC/C=C\C/C=C\C/C=C\C/C=C\C/C=C\CCCC(=O)O.CC/C=C\C/C=C\C/C=C\C/C=C\C/C=C\CCCC(=O)O.NCCN [Ethylene diamine di-eicosapentaenoate, Ethane-1,2-diaminium di[5Z,8Z,11Z,14Z,17Z)-icosa-5,8,11,14,17-pentaenoate]] | 275.29 | 18370 | 2.0 |
